Laboratory results as given in US20140024677A1, “METHODS FOR INDUCING MITOCHONDRIAL BIOGENESIS” (MUSC Foundation For Research Development, priority 2012, published 2014).

Key:
mtDNA in heart = assay: mtDNA copy number in heart of dosed mice (D-loop/apoB); type: in vivo, C57BL/6 mice
Excerpt: (§1) Mitochondrial DNA Content.

I/R induced AKI = conditions: after five doses started 24 h after I/R injury; 144 h
Experimental: Assessing renal function. For mice, blood was collected by retro-orbital eye bleed 24 h and 144 h. Creatinine levels were measured using a Quantichrom Creatinine Assay Kit (BioAssay Systems, Hayward, Calif.) according to the manufacturer's protocol.

renal mitochondria = conditions: treatment after I/R injury
Experimental: Mitochondrial function was measured ex vivo by isolating renal mitochondria and determining state 4 (basal respiration) and state 3 (ADP-stimulated respiratory rate).

[1] = tested on: KIM-1, PGC-1α, COX I, NDUFB8 in renal cortical tissue
Experimental: I/R model of AKI. Eight-week-old male C57BL6 mice weighing 25-30 g were subjected to bilateral renal pedicle ligation. Briefly, renal artery and vein were isolated and blood flow was occluded with a vascular clamp for 20 min, and mice were euthanized at 24, 72, or 144 h after procedure, at which time kidneys were harvested for molecular analysis. All procedures involving animals were performed with approval from the IACUC in accordance with the NIH Guide for the Care and Use of Laboratory Animals.
Immunoblot analysis. Renal cortical tissue was lysed in RIPA buffer containing cocktail protease and phosphatase inhibitors. Total protein content was measured by the BCA assay. Fifty micrograms of total protein were loaded into SDS-PAGE gels and immunoblots were performed as previously described (26). Antibodies used for immunoblot studies were obtained from the following vendors: caspase 3 (Enzo Life Sciences), GAPDH (Fitzgerald Antibodies), COX I and NDUFB8 (MitoSciences), KIM-1 (R&D Systems), and PGC-1α (Calbiochem).
mRNA analysis. Total RNA was isolated from renal cortical tissue with TRIzol (Invitrogen) according to the manufacturer's protocol and cDNA was synthesized using RevertAid First Strand cDNA Synthesis Kit (Fermentas). PCR reactions were performed using 3:1 diluted cDNA product. Primers sequences for NDUFB8 and COX I were used.
Previous in vivo and in vitro research has identified depletion of mitochondrial function and abundance in models of hypoxia correlated with dysfunctional kidney function.

mtDNA in kidney cortex = assay: mtDNA copy number in kidney of dosed mice (D-loop/apoB); type: in vivo, C57BL/6 mice; conditions: 72 h after daily repeated i.p. injection with 100 mg/kg (so in the source)
Excerpt: as §1

gastrocnemius muscle = assay: Dexamethasone-induced muscle wasting, gastrocnemius weight; type: in vivo, Mice
Excerpt: On the 8th day, gastrocnemius muscle was isolated from both the hind limbs and weighed. The average weights were normalized to initial body weights.

[2] = tested on: adult feline cardiomyocytes (AFC); type: cell-based; conditions: 24 hr, formoterol 10 and 30 nM
Experimental: Respirometry assay. […] Each experimental plate was treated with vehicle controls (DMSO<0.5%), a positive control (SRT1720, 10 μM), blank controls, and the appropriate concentration of the compound of interest. The XF-96 protocol consists of five measurements of basal OCR (1 measurement/1.5 min), injection of FCCP (0.5 μM), and three measurements of uncoupled OCR (1 measurement/1.5 min). […] Quality control evaluations considered the basal and uncoupled rates of the vehicle control, positive control, and variances between duplicate treatment wells. […] This threshold is ≧1 S.D. above the historic mean for the vehicle control.

COc1ccc(C[C@@H](C)NC[C@H](O)c2ccc(O)c(NC=O)c2)cc1 (racemic) [formoterol, rac-(R,R)—N-[2-hydroxy-5-[1-hydroxy-2-[1-(4-methoxyphenyl)propan-2-ylamino]ethyl]phenyl]formamide]
mtDNA copy number increase (FIG. 3C, heart figure) (mtDNA in heart; 24 h, i.p. 100 mg/kg (so in the source)): 2 fold | mtDNA copy number increase (FIG. 3C, heart figure) (mtDNA in heart; 72 h, daily repeated i.p. 100 mg/kg (so in the source)): 2.5 fold | Serum creatinine (SCr) (I/R induced AKI): 0.29 mg/dL | Mitochondrial respiration of isolated renal mitochondria (basal and state 3) (renal mitochondria): completely restore | KIM-1 protein expression ([1]; 144 h post I/R injury): to the level of sham vehicle | Gene transcription and protein translation in sham animals ([1]; sham animals exposed to formoterol vs control animals): not significantly altered | COX I gene expression ([1]; treatment after I/R, 144 h): restored with treatment of formoterol after I/R, but not significantly different than the I/R vehicle group | COX I protein expression ([1]; treatment after I/R, 144 h): significantly above the I/R vehicle group | NDUFB8 gene transcription ([1]; treatment after I/R, 144 h): did not restore | NDUFB8 protein expression ([1]; treatment after I/R, 144 h): significantly above the I/R vehicle group | Total PGC-1α gene expression ([1]; treatment from 24 h post I/R injury, 144 h): significantly above the I/R vehicle group, but not fully restored to control levels | mtDNA copy number increase, kidney cortex (mtDNA in kidney cortex): 2 fold

(3R)-N-methyl-3-(2-methylphenoxy)-3-phenylpropan-1-amine [Tomoxetine]
Gastrocnemius muscle weight in DEX-treated mice (gastrocnemius muscle; co-injected with dexamethasone 25 mg/kg i.p. for 7 days, formoterol 100/300 ug/Kg i.p., atomoxetine 100 ug/kg i.p.): restored atrophied muscle back to normal

C[C@H](Cc1ccc(OCC(=O)O)cc1)NC[C@H](O)c1cccc(Cl)c1.O.[Na] (relative stereo) [BRL 37344, (±)-(R*,R*)-[4-[2-[[2-(3-Chlorophenyl)-2-hydroxyethyl]amino]propyl]phenoxy]acetic acid sodium hydrate]
Change in FCCP-uncoupled OCR [2]: did not have any significant effects

C[C@@H]1C[C@H]2[C@@H]3CCC4=CC(=O)C=C[C@]4(C)[C@@]3(F)[C@@H](O)C[C@]2(C)[C@@]1(O)C(=O)CO [DEX, dexamethasone]
Decrease in gastrocnemius wt. compared to saline controls (gastrocnemius muscle; 25 mg/kg i.p., 7 days, weight normalized to initial body weight): 15%

CC(C)NC[C@H](O)c1ccc(O)c(O)c1.Cl [isoproterenol, (R)-3,4-Dihydroxy-α-(isopropylaminomethyl)benzyl alcohol hydrochloride]
Change in FCCP-uncoupled OCR [2]: did not have any significant effects
